Holding throughout (test): NCI anticancer screen, dose series, 48 h
Experiment [1] relates to NCI/ADR-RES ovarian.
Experiment [2] deals with SK-OV-3 ovarian.
Experiment [3] deals with HCT-15 colon.
Experiment [4] concerns SNB-75 CNS.
The subject of experiment [5] is SK-MEL-28 melanoma.
For experiment [6], the system named is MDA-MB-231 breast.
Experiment [7] deals with NCI-H226 lung.
Experiment [8] relates to NCI-H23 lung.
Experiment [9] relates to UO-31 renal.
Experiment [10] deals with ACHN renal.

Several values for one entry are separate records, joined by “and”; a condition that tells them apart may be missing. Identical values can stand only once.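 Protocol summary: plate cells (96-well), add compound at 5 concentrations, incubate 48 h, interpolate endpoints linearly. At the GI50, growth is halved. At the TGI there is no net growth.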

For `CCC(=O)Nc1nnc(Cc2ccc(OC)c(OC)c2)s1`, the GI50 is more than 100 µM in experiment [1]; more than 100 µM in [2]; more than 100 µM in experiment [3]; 44.2 µM in experiment [4]; more than 100 µM in [5]; more than 100 µM in experiment [6]. The GI50 in experiment [7], in experiment [8], in experiment [9] and in [10] was more than 100 µM each time. Besides, the TGI in experiment [1], in experiment [2], in experiment [3], in experiment [4], in experiment [5] and in [6] was more than 100 µM in each case. Further, the TGI in [7], in [8], in [9] and in experiment [10] was more than 100 µM throughout.

For `O=C1Cc2cc(CCN3CCNCC3)c(Cl)cc2N1`, the GI50 is 5.11 µM in experiment [1]; more than 100 µM in experiment [2]; 6.23 µM in experiment [3]; 15.5 µM in [4]; 37 µM in experiment [5]; 3.9 µM in [6]. Also, the GI50 is more than 100 µM in experiment [7], 46.4 µM in experiment [8] and more than 100 µM in experiment [10]. In addition, the TGI in experiment [1] was more than 100 µM; in [2], more than 100 µM; in [3], more than 100 µM; in experiment [4] it was 75.4 µM; in [5] it was more than 100 µM; in experiment [6] it was more than 100 µM. Besides, the TGI in experiment [7], in experiment [8] and in [10] was more than 100 µM each time.

Consider `Cn1c(I)c(C#C[Si](C)(C)C)c(=O)[nH]c1=O`, for which the GI50 is 20.7 µM in experiment [1]; 17.2 µM in [2]; 1.83 µM in experiment [3]; 15.2 µM in experiment [4]; 1.66 µM in experiment [5]; 2.5 µM in experiment [6]. Moreover, the GI50 was 12.7 µM in [7], 4.25 µM in experiment [8], 16.8 µM in [9] and 1.61 µM in [10]. In addition, the TGI in experiment [1] turned out to be 42.8 µM; in experiment [2] it was 30.9 µM; in experiment [3] it was 3.64 µM; in experiment [4], 29.3 µM; in [5], 3.12 µM; in experiment [6], 7.25 µM. The TGI stood at 25.3 µM in [7], 17.3 µM in [8], 32.4 µM in [9] and 3.01 µM in experiment [10].

Turning to `CCOCCOCCOCCOCCOCCOCCOCCOCCOCCO` (tested in a mixture with another compound), the GI50 in [1] was 3.96 µM; in [2] it was 3.91 µM; in experiment [4] it was 0.728 µM; in [5] it was 3.1 µM; in [7], 1.22 µM; in experiment [8] it was 0.957 µM. Also, the GI50 in experiment [9] is 1.58 µM. In addition, the TGI in experiment [1] was more than 32.5 µM; in experiment [2], 13.4 µM; in experiment [4], 5.34 µM; in experiment [5] it was more than 32.5 µM; in experiment [7], 12.5 µM; in experiment [8] it was 5.32 µM. In addition, in [9], the TGI is 18.7 µM.

Regarding `CC1=C(C(=O)Nc2ccc(Cl)c(Cl)c2)C(c2cccc(Cl)c2)NC(=S)N1` (stereo not given), the GI50 in experiment [2] was 15.2 µM; in experiment [3] it was 15.1 µM; in experiment [4] it was 30.4 µM; in [5] it was 15.6 µM; in experiment [6] it was 8.15 µM; in [8], 9.79 µM. Moreover, the GI50 in experiment [9] was 11.1 µM; in experiment [10], 12.4 µM. Moreover, the TGI was 33 µM in experiment [2]; more than 50 µM in [3]; more than 50 µM in [4]; more than 50 µM in [5]; 19.3 µM in experiment [6]; 20.9 µM in experiment [8]. For the same compound, the TGI stood at 24.9 µM in experiment [9] and 37.1 µM in experiment [10].

Take `O=C(C(=CN1CCN(C(=O)c2ccco2)C1=S)C(=O)c1ccccc1)c1ccccc1`: the GI50 in experiment [1] is 9.18 µM; in [2] it was 41.8 µM; in experiment [3] it was 2.63 µM; in [4], 27.4 µM; in experiment [5], 17.8 µM; in [6], 7.41 µM. Further, the GI50 is 6.95 µM in experiment [8], 8.71 µM in experiment [9] and 5.75 µM in experiment [10]. Besides, the TGI in experiment [1] is 19 µM; in [2], more than 50 µM; in experiment [3], 20.7 µM; in experiment [4] it was more than 50 µM; in [5] it was more than 50 µM; in experiment [6], 20.1 µM. Further, the TGI in experiment [8] is 14 µM; in experiment [9], 18.7 µM; in experiment [10], 16.5 µM.

Regarding `COc1ccc2c(c1)nnc1c3cccnc3[nH]c21`, the GI50 is 1.79 µM and 1.92 µM in experiment [1]; 2.69 µM and 2.38 µM in [2]; 2.26 µM and 2.3 µM in experiment [3]; 11.8 µM and 11.2 µM in experiment [5]; 1.42 µM and 1.56 µM in experiment [6]; 2.62 µM and 7.87 µM in [7]. For the same compound, the GI50 is 5.5 µM and 3.04 µM in [8]; 0.122 µM and 0.172 µM in [9]; 0.231 µM in [10]. Besides, the TGI was 12.5 µM and 18.9 µM in [1]; 13.5 µM and 12.5 µM in experiment [2]; 50 µM and 12.9 µM in experiment [3]; 50 µM and > 100 µM in experiment [5]; 11.4 µM and 6.1 µM in [6]; 11.1 µM and 65.3 µM in experiment [7]. Also, the TGI is 14.1 µM and 14.9 µM in [8]; 1.11 µM and 2.17 µM in [9]; more than 100 µM in experiment [10].

As to `Fc1ccc(Nc2nc(Nc3ccc(-c4nc5ccccc5[nH]4)cc3)c3cn[nH]c3n2)cc1`, the GI50 in experiment [1] was 2.11 µM; in experiment [2], 5.03 µM; in [3], 1.76 µM; in experiment [4], 1.35 µM; in experiment [5], 1.88 µM; in [7] it was 2.62 µM. The values for the GI50 in experiment [9] and in experiment [10] were 1.62 µM and 2.05 µM, respectively. In addition, the TGI came to 5.04 µM in experiment [1]; 17.5 µM in experiment [2]; 4.78 µM in experiment [3]; 3.57 µM in experiment [4]; 3.78 µM in experiment [5]; 7.07 µM in [7]. Also, the values for the TGI in [9] and in experiment [10] were 4.32 µM and 5.08 µM, respectively.

(Values after PubChem BioAssay (NCI).)
